Test results reported in patent US9138466B2, “Factor H for transplantation” (Baxter International Inc., priority 2013, dated 2015).
Where “and” joins values, the source holds several entries; their conditions need not be identical. Identical values can stand only once. Marks after values point to notes of the source that are not given here.

Legend:
Assay type in all cases: in vivo
[1] = Mouse CAIA, body weight and tolerability (Example 4)
Protocol: Balb C mice (n=10 per cohort) were used to determine the efficacy of Factor H (FH) during transplant rejection. The mice were treated with ArthritoMAb (anti-collagen) antibody cocktail (2 mg, i.v.) on day 1, followed 7 days later with an injection of LPS (50 μg, i.p.). On day 8, hind paw volumes were measured for each animal and distributed to various treatment groups.
Hind paw volumes were measured on day 8, 11, 12, 13, 15, 19 and 22 (endpoint). The age at start date was 7 to 9 weeks. Body weights were measured bi-weekly to the endpoint (Table 4). At the endpoint, tissue samples were processed for histology and submitted to a pathologist for independent analysis. Sampling 1 was performed at the endpoint. The hind limbs were preserved in 10% formalin. Sampling 2 was performed at the endpoint for group 4 animals. Blood was collected by terminal cardiac puncture. The blood was processed for anti-coagulant. The kidneys were additionally preserved in formalin and followed with 70% EtOH. Samples were scored for inflammation, pannus (granulation tissue), cartilage damage, bone resorption and exostosis (Table 5).

[2] = test system: collagen antibody-induced arthritis in Balb C mice; test: Mouse CAIA, clinical score (Example 4); parameters: key to Mean Maximum Clinical Score: scored 0 to 60, sum of 4 limbs
[3] = test system: collagen antibody-induced arthritis in Balb C mice; test: Mouse CAIA, hind paw volume / footpad swelling (Example 4); parameters: Mean Disease Burden / Hind Limb Volume, Mean Diff. / Total Disease, Mean Diff.: unit not given here; conditions: for Total Footpad Thickness, Day of Study 8: day 8; for Total Footpad Thickness, Day of Study 11: day 11; for Total Footpad Thickness, Day of Study 12: day 12; for Total Footpad Thickness, Day of Study 13: day 13; for Total Footpad Thickness, Day of Study 15: day 15; for Total Footpad Thickness, Day of Study 19: day 19; for Total Footpad Thickness, Day of Study 22: day 22; for % Disease Suppression: footpad thickness AUC vs vehicle; for Total Disease Burden (AUC): footpad thickness days 8-22, in mL·day
[4] = test system: collagen antibody-induced arthritis in Balb C mice; test: Mouse CAIA, histopathology of hind limbs (ankle, H & E) (Example 4); conditions: for Composite Histopathaligy Score / Score From H & E, Bone Resorption / Score From H & E, Cartilage Damage / Score From H & E, Inflammation / Score From H & E, Pannus / Score From H & E, Periosteal Exostotic Changes: ankle; for Score From H & E, Bone Resorption / Score From H & E, Cartilage Damage / Score From H & E, Inflammation / Score From H & E, Pannus / Score From H & E, Periosteal Exostotic Changes: score 0 = normal to 5 = severe
[5] = Dunn's Multiple Comparison Test, G1 vehicle vs treatment
[6] = Dunnett's Multiple Comparison Test, G1 vehicle vs treatment
[7] = Dunnett's Multiple Comparison Test, vehicle vs treatment
[8] = individual animal, listed as Group 3

Etanercept
Body Weight, Wt (g), Mean ([1]; day 1, group mean n=10, before dosing start (day 8)): 17.3 g
Body Weight, Wt ([1]; day 1, individual animal, before dosing start (day 8)): 16.7 g and 17.3 g and 16.5 g (2×) and 18 g (2×) and 17.7 g and 17.5 g and 16.8 g and 17.6 g
Body Weight, Wt (g), Mean ([1]; day 5, group mean n=10, before dosing start (day 8)): 17.7 g
Body Weight, Wt ([1]; day 5, individual animal, before dosing start (day 8)): 18.5 g (2×) and 17.4 g (2×) and 18.2 g and 16.6 g and 17.3 g and 17 g and 18.1 g and 18.3 g
Body Weight, Wt (g), Mean ([1]; day 8, group mean n=10): 16.3 g
Body Weight, Wt ([1]; day 8, individual animal): 16.5 g and 16.4 g (2×) and 16.1 g (2×) and 15.7 g (2×) and 16.2 g and 16.6 g and 17.1 g
Body Weight, Wt (g), Mean ([1]; day 12, group mean n=10): 17 g
Body Weight, Wt ([1]; day 12, individual animal): 16.6 g and 16.7 g (2×) and 17.8 g (2×) and 17.9 g and 15.5 g and 17.1 g and 17.7 g
Body Weight, Wt (g), Mean ([1]; day 15, group mean n=10): 17.4 g
Body Weight, Wt ([1]; day 15, individual animal): 17.1 g and 17.8 g and 17 g and 17.7 g and 16.6 g and 18 g (2×) and 17.9 g and 16.2 g and 17.6 g
Body Weight, Wt (g), Mean ([1]; day 19, group mean n=10): 17.9 g
Body Weight, Wt ([1]; day 19, individual animal): 18.3 g (2×) and 17.7 g and 18.4 g and 14.6 g and 18.8 g and 18.6 g (2×) and 16.5 g and 19.1 g
Body Weight, Wt (g), Mean ([1]; day 22, group mean n=10): 18.1 g
Body Weight, Wt ([1]; day 22, individual animal): 18.8 g and 18.3 g and 17.8 g and 18.7 g and 15.8 g and 18 g and 18.2 g and 17.3 g and 18.6 g and 19.6 g
Mean Body Weigh at Nadir ([1]; lowest group mean body weight as % change from day 1, vehicle −8.0%): −5.7%
Clinical Score, Difference in rank sum [2, 5]: 3.55
Clinical Score, Significant? P < 0.05? [2, 5]: No
Clinical score, Mean ([2]; day 8, group mean n=10): 5.50
Clinical score ([2]; day 8, individual animal): 0 (5×) and 15 and 10 (4×)
Clinical score, Mean ([2]; day 11, group mean n=10): 19.60
Clinical score ([2]; day 11, individual animal): 12 (2×) and 34 and 28 and 4 and 15 and 43 and 11 and 10 and 27
Clinical score, Mean ([2]; day 12, group mean n=10): 37.10
Clinical score ([2]; day 12, individual animal): 32 and 50 (2×) and 45 and 27 and 35 and 26 and 20 and 34 and 52
Clinical score, Mean ([2]; day 13, group mean n=10): 35.50
Clinical score ([2]; day 13, individual animal): 32 and 50 and 45 (2×) and 21 and 35 and 30 and 15 and 34 and 48
Clinical score, Mean ([2]; day 15, group mean n=10): 31.50
Clinical score ([2]; day 15, individual animal): 32 and 49 and 21 and 48 and 25 and 45 and 15 and 10 and 24 and 46
Clinical score, Mean ([2]; day 19, group mean n=10): 28.40
Clinical score ([2]; day 19, individual animal): 32 and 48 and 34 and 25 and 5 and 45 and 20 and 10 and 26 and 37
Clinical score, Mean ([2]; day 22, group mean n=10): 25.70
Clinical score ([2]; day 22, individual animal): 32 and 41 and 34 and 18 (3×) and 40 and 10 and 23 and 26
Day (of Max Clin Score), Mean ([2]; group line 'Mean', day of study): 12.00
Max Clin Score, Mean ([2]; group mean n=10): 38.60
Max Clin Score ([2]; individual animal): 32 and 50 (2×) and 45 and 48 and 35 and 30 and 20 and 34 and 52
Day (of Max Clin Score) ([2]; individual animal, day of study): 12 (8×) and 22 and 16
Mean Maximum Clinical Score ([2]; scored from 0 to 60, sum of 4 limbs, vehicle 45.4): 39.6^ns
Mean Disease Burden ([3]; AUC of combined footpad volume over baseline, days 8 to 22, group mean, vehicle 1.93): 0.74**
Total Disease, 95% CI of diff [3, 6]: 0.441 to 1.94
Total Disease, Mean Diff. [3, 6]: 1.19
Total Disease, Significant? P < 0.05? [3, 6]: Yes
Total Disease, Summary [3, 6]: ** (**= P < 0.01)
Total Disease, q [3, 6]: 3.9
Hind Limb Volume, 95% CI of diff [3, 7]: 0.02587 to 0.1370
Hind Limb Volume, Mean Diff. [3, 7]: 0.08143
Hind Limb Volume, Significant? P < 0.05? [3, 7]: Yes
Hind Limb Volume, Summary [3, 7]: ** (**= P < 0.01)
Hind Limb Volume, q [3, 7]: 3.674
Total Footpad Thickness, Day of Study 8 ([3]; group mean, n 10): 0.35 mL
Total Footpad Thickness, Day of Study 8 ([3]; individual animals (A# 1-10)): 0.41 mL and 0.4 mL and 0.38 mL and 0.37 mL and 0.35 mL and 0.34 mL and 0.32 mL and 0.31 mL and 0.3 mL (2×)
Total Footpad Thickness, Day of Study 11 ([3]; group mean, n 10): 0.44 mL
Total Footpad Thickness, Day of Study 11 ([3]; individual animals (A# 1-10)): 0.49 mL and 0.44 mL (2×) and 0.37 mL and 0.38 mL and 0.39 mL and 0.4 mL (2×) and 0.45 mL and 0.41 mL
Total Footpad Thickness, Day of Study 12 ([3]; group mean, n 10): 0.44 mL
Total Footpad Thickness, Day of Study 12 ([3]; individual animals (A# 1-10)): 0.58 mL and 0.44 mL and 0.35 mL and 0.42 mL and 0.48 mL and 0.49 mL and 0.45 mL and 0.39 mL (2×) and 0.4 mL
Total Footpad Thickness, Day of Study 13 ([3]; group mean, n 10): 0.42 mL
Total Footpad Thickness, Day of Study 13 ([3]; individual animals (A# 1-10)): 0.58 mL and 0.41 mL (2×) and 0.36 mL and 0.33 mL and 0.49 mL and 0.39 mL and 0.35 mL and 0.43 mL and 0.4 mL
Total Footpad Thickness, Day of Study 15 ([3]; group mean, n 10): 0.38 mL
Total Footpad Thickness, Day of Study 15 ([3]; individual animals (A# 1-10)): 0.45 mL and 0.48 mL and 0.34 mL and 0.37 mL and 0.43 mL and 0.41 mL and 0.33 mL (2×) and 0.32 mL and 0.3 mL
Total Footpad Thickness, Day of Study 19 ([3]; group mean, n 10): 0.42 mL
Total Footpad Thickness, Day of Study 19 ([3]; individual animals (A# 1-10)): 0.61 mL and 0.43 mL and 0.4 mL and 0.47 mL (2×) and 0.32 mL and 0.42 mL and 0.35 mL and 0.33 mL and 0.38 mL
Total Footpad Thickness, Day of Study 22 ([3]; group mean, n 10): 0.38 mL
Total Footpad Thickness, Day of Study 22 ([3]; individual animals (A# 1-10)): 0.55 mL and 0.41 mL (2×) and 0.34 mL (2×) and 0.39 mL and 0.36 mL (3×) and 0.32 mL
% Disease Suppression ([3]; group mean, n 10): 61.66%
% Disease Suppression ([3]; individual animals (A# 1-10)): 16.3% and 74.3% and 109.8% and 83.9% and 52.3% and 49.7% and 69.4% and 70.2% and 29.0% and 63.7%
Total Disease Burden (AUC) ([3]; group mean, n 10): 0.74
Total Disease Burden (AUC) ([3]; individual animals (A# 1-10)): 1.62 and 0.56 and −0.19 and 0.35 and 0.92 and 0.97 and 0.59 and 0.58 and 1.37 and 0.70
Maximum Δ Mean Volume ([3]; mean combined foot pad volume, day 8 vs median day of maximal swelling, vehicle 0.21): 0.13** ml
% Disease Suppression (vs Vehicle) ([3]; percent decrease in total disease burden relative to vehicle): 61.7%
Cartilage, Difference in rank sum [4, 5]: −1.5
Cartilage, Significant? P < 0.05? [4, 5]: No
Composite, Difference in rank sum [4, 5]: 2.1
Composite, Significant? P < 0.05? [4, 5]: No
Exostosis, Difference in rank sum [4, 5]: 5.8
Exostosis, Significant? P < 0.05? [4, 5]: No
Inflammation, Difference in rank sum [4, 5]: 3.6
Inflammation, Significant? P < 0.05? [4, 5]: No
Pannus, Difference in rank sum [4, 5]: 0.3
Pannus, Significant? P < 0.05? [4, 5]: No
Composite Histopathaligy Score ([4]; group mean): 6.0 ± 2.1
Score From H & E, Bone Resorption ([4]; group mean): 1.0 ± 0.4
Score From H & E, Cartilage Damage ([4]; group mean): 0.7 ± 0.3
Score From H & E, Inflammation ([4]; group mean): 1.5 ± 0.5
Score From H & E, Pannus ([4]; group mean): 1.4 ± 0.5
Score From H & E, Periosteal Exostotic Changes ([4]; group mean): 1.4 ± 0.8
Score From H & E, Bone Resorption [4, 8]: 1 and 0 (6×) and 3 (3×)
Score From H & E, Cartilage Damage [4, 8]: 1 (3×) and 0 (5×) and 2 (2×)
Score From H & E, Inflammation [4, 8]: 1 (4×) and 3 (3×) and 0 (2×) and 2
Score From H & E, Pannus [4, 8]: 1 and 0 (5×) and 4 (2×) and 2 (2×)
Score From H & E, Periosteal Exostotic Changes [4, 8]: 4 and 0 (6×) and 1 and 3 (2×)
Composite Histopathaligy Score [4, 8]: 11 (2×) and 0 (5×) and 16 and 15 and 1
Bone Resorption ([4]; histopathology summary, graded 1-5, vehicle 0.6 ± 0.3): 1.0 ± 0.4^ns
Pannus ([4]; histopathology summary, graded 1-5, vehicle 1.0 ± 0.3): 1.4 ± 0.5^ns
Inflammation ([4]; histopathology summary, graded 1-5, vehicle 2.0 ± 0.5): 1.5 ± 0.5^ns
Exostosis ([4]; histopathology summary, graded 1 to 5, vehicle 2.6 ± 0.5): 1.4 ± 0.6^ns
Cartilage Damage ([4]; histopathology summary, vehicle 0.5 ± 0.2): 0.7 ± 0.3^ns
Composite Score ([4]; histopathology summary, vehicle 6.7 ± 1.7): 6.0 ± 2.1^ns
